Assays:
HIV-1 RT = HIV-1 RT (Human immunodeficiency virus type 1 group M subtype B, UniProt P04585); assay: HIV-1 Reverse Transcriptase Assay (RNA-dependent DNA polymerase activity, SPA); type: biochemical; details: 30° C., 30 min, 10% DMSO
Protocol: RNA-dependent DNA polymerase activity was measured using a biotinylated primer oligonucleotide and tritiated dNTP substrate. Newly synthesized DNA was quantified by capturing the biotinylated primer molecules on streptavidin coated Scintillation Proximity Assay (SPA) beads (Amersham). The sequences of the polymerase assay substrate were: 18 nt DNA primer, 5′-Biotin/GTC CCT GTT CGG GCG CCA-3′; 47 nt RNA template, 5′-GGGUCUCUCUGGUUAGACCACUCUAGCAGUGGCGCCCGAACAGGGAC-3′. The biotinylated DNA primer was obtained from the Integrated DNA Technologies Inc. and the RNA template was synthesized by Dharmacon. The DNA polymerase assay (final volume 50 μl) contained 32 nM biotinylated DNA primer, 64 nM RNA substrate, dGTP, dCTP, dTTP (each at 5 μM), 103 nM [^3H]-dATP (specific activity=[…]), in 45 mM Tris-HCl, pH 8.0, 45 mM NaCl, 2.7 mM Mg(CH3COO)2, 0.045% Triton X-100 w/v, 0.9 mM EDTA. The reactions contained 5 ul of serial compound dilutions in 100% DMSO for IC50 determination and the final concentrations of DMSO were 10%. Reactions were initiated by the addition of 30 μl of the HIV-RT enzyme (final concentrations of 1-3 nM). Protein concentrations were adjusted to provide linear product formation for at least 30 min of incubation. After incubation at 30° C. for 30 min, the reaction was quenched by addition of 50 μl of 200 mM EDTA (pH 8.0) and […] SA-PVT SPA beads (Amersham, RPNQ0009, reconstituted in 20 mM Tris-HCl, pH 8.0, 100 mM EDTA and 1% BSA). The beads were left to settle overnight and the SPA signals were counted in a 96-well top counter-NXT (Packard).

SMILES	IC50 (HIV-1 RT)	melting point
Cc1cn(Cc2ccc(Br)c(Oc3cc(Cl)cc(C#N)c3)c2F)c(=O)nc1N [Compound I-13, 3-[3-(4-Amino-5-methyl-2-oxo-2H-pyrimidin-1-ylmethyl)-6-bromo-2-fluoro-phenoxy]-5-chloro-benzonitrile]	19.6 nM	262.7 to 263.7 °C
N#Cc1cc(Cl)cc(Oc2c(Cl)ccc(Cn3cc(Cl)c(=O)[nH]c3=O)c2F)c1 [Compound I-18, 3-Chloro-5-[6-chloro-3-(5-chloro-2,4-dioxo-3,4-dihydro-2H-pyrimidin-1-ylmethyl)-2-fluoro-phenoxy]-benzonitrile]	3.7 nM	267.2 to 268 °C
N#Cc1cc(Cl)cc(Oc2c(Br)ccc(CN3CCC(=O)NC3=O)c2F)c1 [Compound I-1, 3-[6-Bromo-3-(2,4-dioxo-tetrahydro-pyrimidin-1-ylmethyl)-2-fluoro-phenoxy]-5-chloro-benzonitrile]	28.7 nM	161.5 to 163 °C
CN1C(=O)NC(=O)C1Cc1ccc(Br)c(Oc2cc(Cl)cc(C#N)c2)c1F (stereo not drawn) [Compound I-32, 3-[6-Bromo-2-fluoro-3-(3-methyl-2,5-dioxo-imidazolidin-4-ylmethyl)-phenoxy]-5-chloro-benzonitrile]	6.3 nM	–
N#Cc1cc(Cl)cc(Oc2c(Br)ccc(CN3CC(=O)NC3=S)c2F)c1 [Compound I-28, 3-[6-Bromo-2-fluoro-3-(4-oxo-2-thioxo-imidazolidin-1-ylmethyl)-phenoxy]-5-chloro-benzonitrile]	86 nM	172 to 173 °C
N#Cc1cc(Cl)cc(Oc2c(Br)ccc(Cn3cc(F)c(=O)[nH]c3=O)c2F)c1 [Compound I-6, 3-[6-Bromo-2-fluoro-3-(5-fluoro-2,4-dioxo-3,4-dihydro-2H-pyrimidin-1-ylmethyl)-phenoxy]-5-chloro-benzonitrile]	2.2 nM	234 to 236 °C
CC1CN(Cc2ccc(Br)c(Oc3cc(Cl)cc(C#N)c3)c2F)C(=O)NC1=O (stereo not drawn) [Compound I-29, 3-[6-Bromo-2-fluoro-3-(5-methyl-2,4-dioxo-tetrahydro-pyrimidin-1-ylmethyl)-phenoxy]-5-chloro-benzonitrile]	85.8 nM	227.8 to 228.6 °C
N#Cc1cc(Cl)cc(Oc2c(Br)ccc(Cn3ccc(=O)[nH]c3=O)c2F)c1 [Compound I-3, 3-[6-Bromo-3-(2,4-dioxo-3,4-dihydro-2H-pyrimidin-1-ylmethyl)-2-fluoro-phenoxy]-5-chloro-benzonitrile]	3.6 nM	229 to 230.5 °C
Cn1cc(Cc2ccc(Br)c(Oc3cc(Cl)cc(C#N)c3)c2F)c(=O)[nH]c1=O [Compound I-31, 3-[6-Bromo-2-fluoro-3-(1-methyl-2,4-dioxo-1,2,3,4-tetrahydro-pyrimidin-5-ylmethyl)-phenoxy]-5-chloro-benzonitrile]	5.9 nM	226 to 227 °C
N#Cc1cc(Cl)cc(Oc2c(Br)ccc(Cn3cc(C(F)(F)F)c(=O)[nH]c3=O)c2F)c1 [Compound I-7, 3-[6-Bromo-3-(2,4-dioxo-5-trifluoromethyl-3,4-dihydro-2H-pyrimidin-1-ylmethyl)-2-fluoro-phenoxy]-5-chloro-benzonitrile]	6 nM	110 to 112 °C
Cc1cn(Cc2ccc(Br)c(Oc3cc(C#N)cc(C(F)F)c3)c2F)c(=O)[nH]c1=O [Compound I-27, 3-[6-Bromo-2-fluoro-3-(5-methyl-2,4-dioxo-3,4-dihydro-2H-pyrimidin-1-ylmethyl)-phenoxy]-5-difluoromethyl-benzonitrile]	3.3 nM	232.3 to 234.8 °C
N#Cc1cc(Cl)cc(Oc2c(Br)ccc(Cn3ccc(N)nc3=O)c2F)c1 [Compound I-12, 3-[3-(4-Amino-2-oxo-2H-pyrimidin-1-ylmethyl)-6-bromo-2-fluoro-phenoxy]-5-chloro-benzonitrile]	148 nM	240 to 245 °C
N#Cc1cc(Cl)cc(Oc2c(Br)ccc(Cn3cc(C#N)c(=O)[nH]c3=O)c2F)c1 [Compound I-15, 1-[4-Bromo-3-(3-chloro-5-cyano-phenoxy)-2-fluoro-benzyl]-2,4-dioxo-1,2,3,4-tetrahydro-pyrimidine-5-carbonitrile]	61.2 nM	246.9 to 247.8 °C
Cc1cc(=O)[nH]c(=O)n1Cc1ccc(Br)c(Oc2cc(Cl)cc(C#N)c2)c1F [Compound I-16, 3-[6-Bromo-2-fluoro-3-(6-methyl-2,4-dioxo-3,4-dihydro-2H-pyrimidin-1-ylmethyl)-phenoxy]-5-chloro-benzonitrile]	26.1 nM	227 to 228 °C
CCc1ccc(Cn2cc(C)c(=O)[nH]c2=O)c(F)c1Oc1cc(Cl)cc(C#N)c1 [Compound I-25, 3-Chloro-5-[6-ethyl-2-fluoro-3-(5-methyl-2,4-dioxo-3,4-dihydro-2H-pyrimidin-1-ylmethyl)-phenoxy]-benzonitrile]	1.8 nM	180.5 to 181.5 °C
N#Cc1cc(Cl)cc(Oc2c(Br)ccc(Cn3cc(CO)c(=O)[nH]c3=O)c2F)c1 [Compound I-24, 3-[6-Bromo-2-fluoro-3-(5-hydroxymethyl-2,4-dioxo-3,4-dihydro-2H-pyrimidin-1-ylmethyl)-phenoxy]-5-chloro-benzonitrile]	11.1 nM	226 to 227 °C
N#Cc1cc(C#N)cc(Oc2c(Br)ccc(Cn3ccc(=O)[nH]c3=O)c2F)c1 [Compound I-11, 5-[6-Bromo-3-(2,4-dioxo-3,4-dihydro-2H-pyrimidin-1-ylmethyl)-2-fluoro-phenoxy]-isophthalonitrile]	22.9 nM	132 to 133 °C
CCc1cn(Cc2ccc(Br)c(Oc3cc(C#N)cc(C#N)c3)c2F)c(=O)[nH]c1=O [Compound I-10, 5-[6-Bromo-3-(5-ethyl-2,4-dioxo-3,4-dihydro-2H-pyrimidin-1-ylmethyl)-2-fluoro-phenoxy]-isophthalonitrile]	13.5 nM	–
COc1cn(Cc2ccc(Br)c(Oc3cc(Cl)cc(C#N)c3)c2F)c(=O)[nH]c1=O [Compound I-19, 3-[6-Bromo-2-fluoro-3-(5-methoxy-2,4-dioxo-3,4-dihydro-2H-pyrimidin-1-ylmethyl)-phenoxy]-5-chloro-benzonitrile]	2.9 nM	190 to 191.1 °C
N#Cc1cc(Cl)cc(Oc2c(Br)ccc(Cn3cc(O)c(=O)[nH]c3=O)c2F)c1 [Compound I-30, 3-[6-Bromo-2-fluoro-3-(5-hydroxy-2,4-dioxo-3,4-dihydro-2H-pyrimidin-1-ylmethyl)-phenoxy]-5-chloro-benzonitrile]	34.5 nM	238 to 240 °C
C=CCC1C(=O)NC(=O)N1Cc1ccc(Br)c(Oc2cc(Cl)cc(C#N)c2)c1F (stereo not drawn) [Compound I-22, 3-[3-(5-Allyl-2,4-dioxo-imidazolidin-1-ylmethyl)-6-bromo-2-fluoro-phenoxy]-5-chloro-benzonitrile]	1000 nM	200 to 201 °C
Cc1cn(Cc2ccc(Br)c(Oc3cc(Cl)cc(C#N)c3)c2F)c(=S)[nH]c1=O [Compound I-23, 3-[6-Bromo-2-fluoro-3-(5-methyl-4-oxo-2-thioxo-3,4-dihydro-2H-pyrimidin-1-ylmethyl)-phenoxy]-5-chloro-benzonitrile]	5.5 nM	225 to 226 °C
C[C@@H]1C(=O)NC(=O)N1Cc1ccc(Br)c(Oc2cc(Cl)cc(C#N)c2)c1F [Compound I-21, 3-[6-Bromo-2-fluoro-3-((R)-5-methyl-2,4-dioxo-imidazolidin-1-ylmethyl)-phenoxy]-5-chloro-benzonitrile]	16.9 nM	119 to 120 °C
CCc1cn(Cc2ccc(Br)c(Oc3cc(Cl)cc(C#N)c3)c2F)c(=O)[nH]c1=O [Compound I-5, 3-[6-Bromo-3-(5-ethyl-2,4-dioxo-3,4-dihydro-2H-pyrimidin-1-ylmethyl)-2-fluoro-phenoxy]-5-chloro-benzonitrile]	1.6 nM	224.6 to 225.6 °C
Cc1cn(CCc2ccc(Br)c(Oc3cc(Cl)cc(C#N)c3)c2F)c(=O)[nH]c1=O [Compound I-14, 3-{6-Bromo-2-fluoro-3-[2-(5-methyl-2,4-dioxo-3,4-dihydro-2H-pyrimidin-1-yl)-ethyl]-phenoxy}-5-chloro-benzonitrile]	7 nM	198 to 200 °C
Cc1cn(Cc2ccc(Br)c(Oc3cc(C#N)cc(C#N)c3)c2F)c(=O)[nH]c1=O [Compound I-8, 5-[6-Bromo-2-fluoro-3-(5-methyl-2,4-dioxo-3,4-dihydro-2H-pyrimidin-1-ylmethyl)-phenoxy]-isophthalonitrile]	4.3 nM	235.6 to 236 °C
CCc1ccc(Cn2cc(Cl)c(=O)[nH]c2=O)c(F)c1Oc1cc(Cl)cc(C#N)c1 [Compound I-26, 3-Chloro-5-[3-(5-chloro-2,4-dioxo-3,4-dihydro-2H-pyrimidin-1-ylmethyl)-6-ethyl-2-fluoro-phenoxy]-benzonitrile]	1.4 nM	–

From patent US8026362B2, “Non-nucleoside reverse transcriptase inhibitors” (Roche Palo Alto LLC, priority 2007, dated 2011)
